Experiment: Short-term stability in spiked pooled human plasma (bench-top, 4 °C, 56 °C)

For Cc1ccc(NC(=O)c2ccc(CN3CCN(C)CC3)cc2)cc1Nc1nccc(-c2cccnc2)n1 [Imatinib], the “Short-time stability (24h, 4°C, without daylight) Accuracy [%]” value (validation standard 2xLLOV) was 105.2%, the “Short-time stability (24h, RT, with daylight) Accuracy [%]” value (validation standard 2xLLOV) was 86.0% and the “Short-time stability (24h, RT, without daylight) Accuracy [%]” value (validation standard 2xLLOV) was 82.7%. The “Short-time stability (24h, 4°C, without daylight) Accuracy [%]” value (validation standard LLOV) was 81.3%, the “Short-time stability (24h, RT, with daylight) Accuracy [%]” value (validation standard LLOV) was 83.7% and the “Short-time stability (24h, RT, without daylight) Accuracy [%]” value (validation standard LLOV) was 83.8%. The “Short-time stability (24h, 4°C, without daylight) Accuracy [%]” value (validation standard MOV) was 102.2%, the “Short-time stability (24h, RT, with daylight) Accuracy [%]” value (validation standard MOV) was 93.6% and the “Short-time stability (24h, RT, without daylight) Accuracy [%]” value (validation standard MOV) was 88.6%. The “Short-time stability (24h, 4°C, without daylight) Accuracy [%]” value (validation standard ULOV) was 94.2%, the “Short-time stability (24h, RT, with daylight) Accuracy [%]” value (validation standard ULOV) was 85.6% and the “Short-time stability (24h, RT, without daylight) Accuracy [%]” value (validation standard ULOV) was 82.9%.

In the case of C[C@@H](Oc1cc(-c2cnn(C3CCNCC3)c2)cnc1N)c1c(Cl)ccc(F)c1Cl [Crizotinib], the “Short-time stability (24h, RT, with daylight) Accuracy [%]” value (validation standard 2xLLOV) is reported as 85.9%, the “Short-time stability (24h, RT, without daylight) Accuracy [%]” value (validation standard 2xLLOV) is reported as 92.4% and the “Short-time stability (24h, RT, with daylight) Accuracy [%]” value (validation standard LLOV) is reported as 62.9%. For the same compound, the “Short-time stability (24h, RT, without daylight) Accuracy [%]” value (validation standard LLOV) was 71.2%, the “Short-time stability (24h, RT, with daylight) Accuracy [%]” value (validation standard MOV) was 95.3% and the “Short-time stability (24h, RT, without daylight) Accuracy [%]” value (validation standard MOV) was 99.8%. The “Short-time stability (24h, RT, with daylight) Accuracy [%]” value (validation standard ULOV) was 85.2% and the “Short-time stability (24h, RT, without daylight) Accuracy [%]” value (validation standard ULOV) was 89.5%.

For CN(C)C/C=C/C(=O)Nc1cc2c(Nc3ccc(F)c(Cl)c3)ncnc2cc1O[C@H]1CCOC1 [Afatinib], the “concentrations in short-term stability investigations” value (24 h, room temperature, with or without light) was 64.3–92.5%, the “Short-time stability (1h, 56°C) Accuracy [%]” value (validation standard 2xLLOV) was 30.4% and the “Short-time stability (24h, 4°C, without daylight) Accuracy [%]” value (validation standard 2xLLOV) was 85.5%. For the same compound, the “Short-time stability (24h, RT, with daylight) Accuracy [%]” value (validation standard 2xLLOV) was 80.8%, the “Short-time stability (24h, RT, without daylight) Accuracy [%]” value (validation standard 2xLLOV) was 92.5% and the “Short-time stability (1h, 56°C) Accuracy [%]” value (validation standard LLOV) was 7.2%. For the same compound, the “Short-time stability (24h, 4°C, without daylight) Accuracy [%]” value (validation standard LLOV) was 85.9%, the “Short-time stability (24h, RT, with daylight) Accuracy [%]” value (validation standard LLOV) was 64.3% and the “Short-time stability (24h, RT, without daylight) Accuracy [%]” value (validation standard LLOV) was 69.9%. For the same compound, the “Short-time stability (1h, 56°C) Accuracy [%]” value (validation standard MOV) was 36.2%, the “Short-time stability (24h, 4°C, without daylight) Accuracy [%]” value (validation standard MOV) was 97.9% and the “Short-time stability (24h, RT, with daylight) Accuracy [%]” value (validation standard MOV) was 89.4%. For the same compound, the “Short-time stability (24h, RT, without daylight) Accuracy [%]” value (validation standard MOV) was 91.4%, the “Short-time stability (1h, 56°C) Accuracy [%]” value (validation standard ULOV) was 33.2% and the “Short-time stability (24h, 4°C, without daylight) Accuracy [%]” value (validation standard ULOV) was 92.8%. The “Short-time stability (24h, RT, with daylight) Accuracy [%]” value (validation standard ULOV) was 77.8% and the “Short-time stability (24h, RT, without daylight) Accuracy [%]” value (validation standard ULOV) was 82.7%.

In the case of COc1cc2nccc(Oc3ccc(NC(=O)NC4CC4)c(Cl)c3)c2cc1C(N)=O [Lenvatinib], the “Short-time stability (1h, 56°C) Accuracy [%]” value (validation standard 2xLLOV) is reported as 56.5%, the “Short-time stability (24h, 4°C, without daylight) Accuracy [%]” value (validation standard 2xLLOV) is reported as 103.4% and the “Short-time stability (24h, RT, with daylight) Accuracy [%]” value (validation standard 2xLLOV) is reported as 96.8%. For the same compound, the “Short-time stability (24h, RT, without daylight) Accuracy [%]” value (validation standard 2xLLOV) was 94.6%, the “Short-time stability (1h, 56°C) Accuracy [%]” value (validation standard LLOV) was 62.9% and the “Short-time stability (24h, 4°C, without daylight) Accuracy [%]” value (validation standard LLOV) was 114.0%. For the same compound, the “Short-time stability (24h, RT, with daylight) Accuracy [%]” value (validation standard LLOV) was 106.4%, the “Short-time stability (24h, RT, without daylight) Accuracy [%]” value (validation standard LLOV) was 110.0% and the “Short-time stability (1h, 56°C) Accuracy [%]” value (validation standard MOV) was 46.6%. For the same compound, the “Short-time stability (24h, 4°C, without daylight) Accuracy [%]” value (validation standard MOV) was 95.9%, the “Short-time stability (24h, RT, with daylight) Accuracy [%]” value (validation standard MOV) was 93.9% and the “Short-time stability (24h, RT, without daylight) Accuracy [%]” value (validation standard MOV) was 94.3%. The “Short-time stability (1h, 56°C) Accuracy [%]” value (validation standard ULOV) was 40.6%, the “Short-time stability (24h, 4°C, without daylight) Accuracy [%]” value (validation standard ULOV) was 100.4% and the “Short-time stability (24h, RT, with daylight) Accuracy [%]” value (validation standard ULOV) was 102.7%. The “Short-time stability (24h, RT, without daylight) Accuracy [%]” value (validation standard ULOV) was 97.9%.

With C#Cc1cccc(Nc2ncnc3cc(OCCOC)c(OCCOC)cc23)c1 [Erlotinib] the “Short-time stability (1h, 56°C) Accuracy [%]” value (validation standard 2xLLOV) was 61.0%, the “Short-time stability (24h, 4°C, without daylight) Accuracy [%]” value (validation standard 2xLLOV) was 100.7% and the “Short-time stability (24h, RT, without daylight) Accuracy [%]” value (validation standard 2xLLOV) was 95.3%. The “Short-time stability (1h, 56°C) Accuracy [%]” value (validation standard LLOV) was 69.2%, the “Short-time stability (24h, 4°C, without daylight) Accuracy [%]” value (validation standard LLOV) was 110.4% and the “Short-time stability (24h, RT, without daylight) Accuracy [%]” value (validation standard LLOV) was 107.4%. The “Short-time stability (1h, 56°C) Accuracy [%]” value (validation standard MOV) was 52.1%, the “Short-time stability (24h, 4°C, without daylight) Accuracy [%]” value (validation standard MOV) was 98.0% and the “Short-time stability (24h, RT, without daylight) Accuracy [%]” value (validation standard MOV) was 97.9%. The “Short-time stability (1h, 56°C) Accuracy [%]” value (validation standard ULOV) was 45.8%, the “Short-time stability (24h, 4°C, without daylight) Accuracy [%]” value (validation standard ULOV) was 98.7% and the “Short-time stability (24h, RT, without daylight) Accuracy [%]” value (validation standard ULOV) was 101.0%.

For O=C(c1cc(Cc2n[nH]c(=O)c3ccccc23)ccc1F)N1CCN(C(=O)C2CC2)CC1 [Olaparib], the “Short-time stability (1h, 56°C) Accuracy [%]” value (validation standard 2xLLOV) was 64.1%, the “Short-time stability (24h, 4°C, without daylight) Accuracy [%]” value (validation standard 2xLLOV) was 101.8% and the “Short-time stability (24h, RT, with daylight) Accuracy [%]” value (validation standard 2xLLOV) was 91.3%. The “Short-time stability (24h, RT, without daylight) Accuracy [%]” value (validation standard 2xLLOV) was 90.8%, the “Short-time stability (1h, 56°C) Accuracy [%]” value (validation standard LLOV) was 80.6% and the “Short-time stability (24h, 4°C, without daylight) Accuracy [%]” value (validation standard LLOV) was 110.7%. For the same compound, the “Short-time stability (24h, RT, with daylight) Accuracy [%]” value (validation standard LLOV) was 108.3%, the “Short-time stability (24h, RT, without daylight) Accuracy [%]” value (validation standard LLOV) was 110.6% and the “Short-time stability (1h, 56°C) Accuracy [%]” value (validation standard MOV) was 49.4%. For the same compound, the “Short-time stability (24h, 4°C, without daylight) Accuracy [%]” value (validation standard MOV) was 98.6%, the “Short-time stability (24h, RT, with daylight) Accuracy [%]” value (validation standard MOV) was 89.4% and the “Short-time stability (24h, RT, without daylight) Accuracy [%]” value (validation standard MOV) was 88.9%. For the same compound, the “Short-time stability (1h, 56°C) Accuracy [%]” value (validation standard ULOV) was 42.9%, the “Short-time stability (24h, 4°C, without daylight) Accuracy [%]” value (validation standard ULOV) was 99.7% and the “Short-time stability (24h, RT, with daylight) Accuracy [%]” value (validation standard ULOV) was 99.0%. For the same compound, the “Short-time stability (24h, RT, without daylight) Accuracy [%]” value (validation standard ULOV) was 94.2%.
